Values joined by “and” are separate entries in the source; they are usually repeats but may differ in a detail not shown here. Equal values may be shown once.
How the values were obtained:
[1] = molecular target: T1, Aβ(1-40) (Homo sapiens, UniProt P05067); test: BASSR (Beta-Amyloid Self-Seeding Radioassay), inhibitors of self-seeded amyloid fibril growth; format: biochemical; conditions: 30 μM soluble Aβ(1-40) + 125I-labeled Aβ(1-40), 37° C., 3 to 5 hours; replicate values; letter = synthetic lot; ppt = precipitate; V-shaped = inhibition followed by precipitation
T1 construct: […]; purchased Bachem, Torrance, Calif
In short: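 Self-seeded growth of ^125I-labeled Aβ(1-40) fibrils in 50 mM sodium phosphate pH 7.5, 100 mM NaCl, 0.02% NaN3, 1 M urea; compound (3-fold dilutions from 100 μM final) preincubated 10 min on ice, then 3–5 h at 37° C. Fibrils collected by vacuum filtration on 0.2 μm filters and counted for radioactivity.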

[2] = molecular target: T2, Aβ (1-42) (Homo sapiens, UniProt P05067); test: BATYM assay (Aβ (1-42) aggregation, Thioflavin T fluorescence); format: biochemical; conditions: Aβ 1-42 final concentration 100 μM, 37° C., 1 day, letter = synthetic lot
T2 construct: Required Aβ (1-42) (California Peptide) was dried from its hexafluoroisopropanol (HFIP) stock solution; purchased California Peptide
In short: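 Aβ (1-42) (100 μM final, PBS pH 7.4 from DMSO) incubated with compound at 37° C. for 1 day. Aggregation read by ThT (30 μM, glycine-NaOH pH 8.5) fluorescence, ex 440/em 485 nm; inhibition as fluorescence reduction corrected for compound-alone signal, IC50 by curve fitting from two experiments in triplicate.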

[3] = molecular target: T3, Aβ (1-40) peptide (Homo sapiens, UniProt P05067); test: BAPA (Beta-Amyloid Peptide Aggregation, pH 6.0, filtration); format: biochemical; conditions: Aβ (1-40) 33 μM, pH 6.0, 2 to 4 hours at room temperature; replicate values; letter = synthetic lot
T3 construct: 10 μL 0.5 mg/mL Aβ (1-40) peptide in 20% HFIP
In short: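 Aggregation of human Aβ (1-40) peptide was measured in an endpoint filtration assay. The peptide was first reduced to monomer with hexafluoroisopropanol (HFIP), then used at 33 μM so it would aggregate at pH 6.0, and incubated for 2 to 4 hours at room temperature. Filter plates were washed with 100 μL phosphate buffer, impregnated with Meltilex, and counted on a Microbeta counter with background correction.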

[4] = molecular target: T1, Aβ(1-40); test: BASST (Beta-Amyloid Self-Seeding, Thioflavin T), inhibitors of self-seeded amyloid fibril growth; format: biochemical; conditions: 30 μM soluble Aβ(1-40), 37° C., 3 to 5 hours, thioflavin T fluorescence; replicate values; letter = synthetic lot; read-out: BASST (IC50 = μM)
In short: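 Self-seeded Aβ(1-40) fibril growth was run in 50 mM sodium phosphate pH 7.5, 100 mM NaCl, 0.02% NaN3, 1 M urea. Compounds were tested in 3-fold serial dilutions (top 100 μM final): 10 min on ice, then 3–5 h at 37 °C. Fibrils were read by 5 μM thioflavin T fluorescence (ex 440/em 485 nm).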

T1 sequence (P05067 672-711 limits assumed): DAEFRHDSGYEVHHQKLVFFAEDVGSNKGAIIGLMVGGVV
T3 sequence (P05067 672-711 limits assumed): as above
T2 sequence (P05067 672-713 limits assumed): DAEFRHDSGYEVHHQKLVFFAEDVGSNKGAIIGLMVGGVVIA

SMILES	IC50 [1]	melting point	IC50 [2]	IC50 [3]	IC50 [4]
O=C(O)c1ccccc1Nc1ccc(CCc2ccc(Oc3ccccc3)cc2)cc1 [Example 134, 2-{4-[2-(4-Phenoxy-phenyl)-ethyl]-phenylamino}-benzoic acid]	> 100 µM	153 to 154 °C	36.5 µM	> 60 µM	2 µM
O=C(O)c1ccccc1Nc1ccc(CCCCCc2ccc(Cl)c(Cl)c2)cc1 [Example 135, 2-{4-[5-(3,4-Dichloro-phenyl)-pentyl]-phenylamino}-benzoic acid]	> 100 µM	106 to 108 °C	31.2 µM	> 60 µM	1.2 µM
O=C(O)c1ccc(Nc2ccc(CCc3ccc(Cl)c(Cl)c3)cc2)c(C(=O)O)c1 [Example 144, 4-{4-[2-(3,4-Dichloro-phenyl)-ethyl]-phenylamino}-isophthalic acid]	15 µM and 25 µM	264 to 266 °C	> 100 µM	114 µM	40 µM
O=C(O)c1ccc(C(F)(F)F)cc1Nc1ccc(CCc2ccc(Cl)c(Cl)c2)cc1 [Example 145, 2-{4-[2-(3,4-Dichloro-phenyl)-ethyl]-phenylamino}-4-trifluoromethyl-benzoic acid]	10 µM and 40 µM and 30 µM	134 to 136 °C	56.8 µM	9 µM	4 µM
CN(C)c1ccc(N(C)c2ccc(CCc3ccc(Cl)c(Cl)c3)cc2)c(C(=O)O)c1 [Example 147, 2-({4-[2-(3,4-Dichloro-phenyl)-ethyl]-phenyl}-methyl-amino)-5-dimethylamino-benzoic acid]	> 100 µM	128 to 131 °C	93.4 µM	> 60 µM	10 µM
